Patent US10947188B2, “Small molecule ferroptosis inducers” (THE TRUSTEES OF COLUMBIA UNIVERSITY IN THE CITY OF NEW YORK, priority 2016, dated 2021)
Converted amounts (≈) assume the structure as drawn.

Columns and labels:
HT-1080 cells [1] = assay: Cell viability assay (Alamar Blue), lethal compounds with or without modulators; assay type: cell-based; details: for effect on FIN56 lethality: modulator cotreatment or pretreatment; for effect of ferroptosis inhibitors (α-tocopherol, deferoxamine) on lethality: cotreatment; for ferroptosis-inducing activity of FIN56 analogs: HT-1080, 48 hrs
Method: 1,000 cells per 36 μl were seeded in each well in 384-well plates. Lethal compounds were dissolved, and a twofold, 12-point dilution series was prepared in DMSO. Compound solutions were further diluted with media at 1:25, and 4 μl per well of the diluted solutions was added to cell cultures immediately after cells were seeded. […] When other cell-death-modulating compounds (100 nM sodium selenite, 1 μM cerivastatin, 100 μg/mL mevalonic acid) were used in cotreatments, they were supplemented to cell culture for 24 h before lethal compounds were added to cell culture, after which cells were further incubated for 24 h at 37° C. under 5% CO2. On the day of the viability measurement, we added 10 μl per well of 50% Alamar Blue diluted in media (Life Technologies) and further incubated the cells at 37° C. for 6 h. Fluorescence intensity (excitation/emission: 530/590) was measured with a Victor 3 plate reader (PerkinElmer), and the normalized viability was calculated as VL=(IL−I0)/(IV−I0), where VL, I0, IV, and IL are the normalized viability and the raw fluorescence intensities from the wells containing media, cells treated with a vehicle (negative control), and cells with the lethal compound (L), respectively. When the effect of a chemical modulator (M) on L was calculated, we instead used the equation VL|M=(IM,L−I0)/(IM,V−I0), where VL|M, IM,L and IM,V are the normalized viability, and fluorescence intensity from cells treated with […], respectively. The viability was typically measured in biological triplicate unless otherwise specified. A representative dose-response curve, the mean and standard error of normalized viability from one replicate were plotted. […]

GPX4 = assay: Western blotting of GPX4 protein abundance; assay type: cell-based, human; details: for effect on FIN56-induced decrease of GPX4 protein abundance: 5 μM FIN56
Method: Seeded 300,000 cells (HT-1080 or BJeLR) per well in six-well plates. For cotreatment, ferroptosis inducers (10 μM erastin for 11 h, 0.5 μM (1S, 3R)-RSL3 for 2 h, or 5 μM FIN56) and 100 μM α-tocopherol were added to cell culture at the same time, and cells were then incubated for 10 h (FIG. 2E). When other death-modulating compounds (100 nM sodium selenite, 1 μM cerivastatin, 100 μg/mL mevalonic acid, 30 μM C75, or 2 μM cerulenin) were used in cotreatments, cells were pre-incubated with the modulators for 24 h before being treated with ferroptosis inducers for 6 h. Cell lysis, SDS-PAGE and protein transfer to PVDF membrane were performed as previously described (Dixon et al. 2012). We used the following antibodies: anti-human α-tubulin (Santa Cruz Biotechnology, sc-32293, 1:10,000 dilution), anti-human GPX4 (Abcam, ab41787, 1:2,000 dilution), anti-human GPX1 (R&D Systems, AF3798, 1:1,000 dilution), and anti-human SQS (Abcam, ab109723 for full-length, ab195046 for truncated, both at 1:1,000 dilution). Secondary antibodies were from LI-COR (1:3,000 dilution). The PVDF membranes labeled with primary and secondary antibodies were scanned using an Odyssey Imaging System (LI-COR). Experiments were performed in biological triplicates, and the mean±s.e. of intensity was plotted.

HT-1080 cells [2] = assay: Lethality of commercially available CIL41/70 structural analogs; assay type: cell-based; details: Homo sapiens, tested once in technical triplicates
Outline: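 HT-1080 cells (1,000/well) dosed at seeding with twofold 12-point dilutions of lethal compounds. Viability read by Alamar Blue fluorescence (530/590 nm) after 6 h, normalized to media and vehicle wells. Analogs tested once, in technical triplicate.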

HT-1080 cells [3] = assay: Analysis of lipid ROS generation (C11-BODIPY 581/591 flow cytometry); assay type: cell-based
Method: Cells were treated with test compounds, trypsinized, pelleted, and washed once with PBS. For lipophilic or aqueous ROS detection, cells were re-suspended in Hanks' Balanced Salt Solution (HBSS; […] Cells were then pelleted, re-suspended in 500 μL HBSS, strained through a 40-μm cell strainer (BD Falcon), and analyzed using a BD Accuri C6 flow cytometer (BD Biosciences). Both dyes were measured in the FL1 channel. Experiments were done in biological triplicates.

## COC(=O)c1ccc([C@H]2c3[nH]c4ccccc4c3C[C@H](C(=O)OC)N2C(=O)CCl)cc1 [(1S, 3R)-RSL3]
HT-1080 cells [1]; HT-1080 cells, modulatory profiling scheme
  suppression of lethality by mevalonate-pathway modulators (FPP, YM-53601, idebenone) and α-tocopherol: potently suppressed by all the compounds
GPX4; BJeLR, cotreatment with 100 μM α-tocopherol, 10 h, FIN56 5 μM
  abundance of GPX4 protein: Neither erastin nor (1S, 3R)-RSL3 affected the abundance of GPX4 to the same extent as FIN56

## CNc1ccc2oc(C[C@H]3O[C@@]4(CC[C@H]3C)O[C@H]([C@H](C)C(=O)c3ccc[nH]3)[C@H](C)C[C@H]4C)nc2c1C(=O)O [A23187]
HT-1080 cells [1]; HT-1080 cells
  effect on FIN56 lethality: enhanced FIN56 lethality

## N[C@@H]1CCCN(c2c(/C=C3\SC(=O)NC3=O)cccc2-c2ccccc2)C1 [AZD-1208]
HT-1080 cells [1]; HT-1080 cells
  effect of ferroptosis inhibitors (α-tocopherol, deferoxamine) on lethality: the lethality was not suppressed by αToc

## O=C(O)CN(CC(=O)O)c1ccccc1OCCOc1ccccc1N(CC(=O)O)CC(=O)O [BAPTA]
HT-1080 cells [1]; HT-1080 cells
  effect on FIN56 lethality: suppressed it

## CN1CCCN(C(=O)c2cccc(-c3ccc(/C=C4/C(=O)Nc5ccc(Cl)cc54)o3)c2)CC1 [CX-6258]
HT-1080 cells [1]; HT-1080 cells
  effect of ferroptosis inhibitors (α-tocopherol, deferoxamine) on lethality: the lethality was not suppressed by αToc

## O=C(O)CN(CCOCCOCCN(CC(=O)O)CC(=O)O)CC(=O)O [EGTA, Ethyleneglycol-O,O′-bis(2-aminoethyl)-N,N,N′,N′-tetraacetic acid]
HT-1080 cells [1]; HT-1080 cells
  effect on FIN56 lethality: suppressed it

## CC(C)=CCC/C(C)=C/CC/C(C)=C/COP(=O)(O)OP(=O)(O)O.N.N.N [FPP, farnesyl-PP]
HT-1080 cells [1]; HT-1080 cells
  effect on FIN56 lethality: suppressed the lethality of FIN56

## N/C(COc1cccc(Cl)c1)=N\OC(=O)CCn1cc(C(F)(F)F)ccc1=O [MB16]
HT-1080 cells [2]
  EC50: > 20 µg/mL

## Cc1ccc(OC/C(N)=N/OC(=O)CCn2cc(C(F)(F)F)ccc2=O)cc1 [MB17]
HT-1080 cells [2]
  EC50: > 20 µg/mL

## O=S(=O)(NC1CCOCC1)c1ccc2c(c1)C(=NO)c1cc(S(=O)(=O)NC3CCOCC3)ccc1-2 [SRS8-18, 9-(hydroxyimino)-N2,N7-bis(tetrahydro-2H-pyran-4-yl)-9H-fluorene-2,7-disulfonamide]
HT-1080 cells [1]
  ferroptosis-inducing activity of FIN56 analogs: complete loss of activity

## O=S(=O)(NC1CCOCC1)c1ccc2c(c1)C(=NOCCOCCOCCO)c1cc(S(=O)(=O)NC3CCOCC3)ccc1-2 [SRS11-66, 9-(2-(2-(2-hydroxyethoxy)ethoxy)ethoxyimino)-N2,N7-bis(tetrahydro-2H-pyran-4-yl)-9H-fluorene-2,7-disulfonamide]
HT-1080 cells [1]
  ferroptosis-inducing activity of FIN56 analogs: complete loss of activity

## CCCCCCCCCCCCCCOc1ccc(C(=O)O)o1 [TOFA]
HT-1080 cells [1]; HT-1080 cells
  effect on FIN56 lethality: potent suppressor of FIN56
GPX4
  effect on FIN56-induced decrease of GPX4 protein abundance: inhibited the loss of GPX4
HT-1080 cells [3]
  effect on lipid ROS generation after FIN56 treatment: suppressed lipid ROS generation after FIN56 treatment

## N/C(Cc1ccc(Cl)cc1)=N\OC(=O)C(c1ccccc1)c1ccccc1 [VM1]
HT-1080 cells [2]
  EC50: 2 µg/mL (≈ 5.28 µM)

## N/C(Cc1ccc(Cl)cc1Cl)=N\OC(=O)Cc1ccc(Cl)cc1 [VM2]
HT-1080 cells [2]
  EC50: > 20 µg/mL

## N/C(Cc1ccc(Cl)cc1Cl)=N\OC(=O)/C=C/c1ccccc1Cl [VM3]
HT-1080 cells [2]
  EC50: 8.51 µg/mL (≈ 22.2 µM)

## N/C(Cc1cccc2ccccc12)=N\OC(=O)CCc1ccccc1 [VM4]
HT-1080 cells [2]
  EC50: > 20 µg/mL

## N/C(Cc1ccc([N+](=O)[O-])cc1)=N\OC(=O)CCc1ccccc1 [VM5]
HT-1080 cells [2]
  EC50: > 20 µg/mL

## F/C(COc1ccc2c(c1)[nH]c1ccccc12)=C1/CN2CCC1CC2 [YM-53601]
HT-1080 cells [1]; HT-1080 cells
  effect on FIN56 lethality: suppressed FIN56 lethality

## Cc1nn(C/C(N)=N/OC(=O)C2CCCCC2)c(C)c1Br [ZE1]
HT-1080 cells [2]
  EC50: > 20 µg/mL

## Cc1nn(C/C(N)=N/OC(=O)CC23CC4CC(CC(C4)C2)C3)c(C)c1Br [ZE2]
HT-1080 cells [2]
  EC50: 15.6 µg/mL (≈ 36.9 µM)

## COc1ccc(CC(=O)O/N=C(\N)Cn2nc(C(F)(F)F)cc2C)cc1 [ZE3]
HT-1080 cells [2]
  EC50: > 20 µg/mL

## Cc1nn(C/C(N)=N/OC(=O)C(C)C)c(C)c1[N+](=O)[O-] [ZE4]
HT-1080 cells [2]
  EC50: > 20 µg/mL

## COc1ccc(CC(=O)O/N=C(/N)Cn2nc(C)c([N+](=O)[O-])c2C)cc1 [ZE5]
HT-1080 cells [2]
  EC50: > 20 µg/mL

## CCC(=O)O/N=C(/N)Cn1nc(C(F)(F)F)cc1C [ZE6]
HT-1080 cells [2]
  EC50: > 20 µg/mL

## COc1ccc(CC(=O)O/N=C(/N)Cn2nc(C)c(Br)c2C)cc1 [ZE7]
HT-1080 cells [2]
  EC50: > 20 µg/mL

## Cc1cc(C(F)(F)F)nn1C/C(N)=N/OC(=O)CC12CC3CC(CC(C3)C1)C2 [ZE8]
HT-1080 cells [2]
  EC50: > 20 µg/mL

## Cc1nn(C/C(N)=N/OC(=O)Cn2nc(C(F)(F)F)cc2C2CC2)c(C)c1[N+](=O)[O-] [ZE9]
HT-1080 cells [2]
  EC50: > 20 µg/mL

## Cc1cc(C(F)(F)F)nn1C/C(N)=N/OC(=O)CC1CC2CCC1C2 (stereo not shown) [ZE10]
HT-1080 cells [2]
  EC50: > 20 µg/mL

## N/C(Cn1c(C(F)(F)F)nc2ccccc21)=N\OC(=O)CC1CC2CCC1C2 (stereo not shown) [ZE11]
HT-1080 cells [2]
  EC50: > 20 µg/mL

## CC1=C(Br)C(C)N(C/C(N)=N/OC(=O)CC2CC3CCC2C3)N1 (stereo not shown) [ZE12]
HT-1080 cells [2]
  EC50: > 20 µg/mL

## Cc1cccc(OCC(=O)O/N=C(/N)Cn2nc(C)c([N+](=O)[O-])c2C)c1 [ZE13]
HT-1080 cells [2]
  EC50: > 20 µg/mL

## Cc1nn(C/C(N)=N\OC(=O)COc2cc(Cl)ccc2Cl)c(C)c1[N+](=O)[O-] [ZE14]
HT-1080 cells [2]
  EC50: > 20 µg/mL

## Cc1cc(C(F)(F)F)nn1C/C(N)=N/OC(=O)C1CCCCC1 [ZE15]
HT-1080 cells [2]
  EC50: > 20 µg/mL

## N/C(Cc1ccc(Cl)cc1)=N\OC(=O)Cc1ccccc1 [ZE16]
HT-1080 cells [2]
  EC50: > 20 µg/mL

## CC(=O)O/N=C(N)/C(N)=N/OC(C)=O [ZE17]
HT-1080 cells [2]
  EC50: > 20 µg/mL

## C[C@H]1O[C@@H](O[C@H]2[C@@H](O)C[C@H](O[C@H]3[C@@H](O)C[C@H](O[C@H]4CC[C@@]5(C)[C@H](CC[C@@H]6[C@@H]5C[C@@H](O)[C@]5(C)[C@@H](C7=CC(=O)OC7)CC[C@]65O)C4)O[C@@H]3C)O[C@@H]2C)C[C@H](O)[C@@H]1O [digoxin, Digoxin]
HT-1080 cells [1]; HT-1080 cells
  effect on FIN56 lethality: enhanced FIN56 lethality

## COC1=C(OC)C(=O)C(CCCCCCCCCCO)=C(C)C1=O [idebenone]
HT-1080 cells [1]
  effect on staurosporine-induced cell death: enhanced it
HT-1080 cells [1]; HT-1080 cells
  effect on FIN56 lethality: the only suppressor of FIN56-induced ferroptosis
GPX4
  effect on FIN56-induced decrease of GPX4 protein abundance: did not block the decrease in GPX4 protein abundance
HT-1080 cells [3]
  effect on lipid ROS generation after FIN56 treatment: inhibited lipid ROS generation after FIN56 treatment

## C[C@H](CCC(=O)O)C[C@H](C)C[C@H](C)C(=O)/C=C(\O)[C@H](C)C[C@H](C)C/C=C/[C@@H](C)[C@@H](O)[C@@H](C)[C@@H](O)C[C@@H]1CC[C@@](C)([C@H]2CC[C@@](C)([C@@H](C)O)O2)O1 [ionomycin]
HT-1080 cells [1]; HT-1080 cells
  effect on FIN56 lethality: enhanced FIN56 lethality

## O=[Se]([O-])[O-].[Na+].[Na+] [selenite, sodium selenite]
HT-1080 cells [1]; HT-1080 cells
  effect on FIN56 lethality: suppressed FIN56 lethality

## C=C(CC[C@]12O[C@H](C(=O)O)[C@@](O)(C(=O)O)[C@](C(=O)O)(O1)[C@H](OC(=O)/C=C/[C@@H](C)C[C@@H](C)CC)[C@H]2O)[C@@H](OC(C)=O)[C@H](C)Cc1ccccc1 [zaragozic acid A]
HT-1080 cells [1]; HT-1080 cells
  effect on FIN56 lethality: suppressed FIN56 lethality

## Cc1c(C)c2c(c(C)c1O)CC[C@@](C)(CCC[C@H](C)CCC[C@H](C)CCCC(C)C)O2 [α-tocopherol]
HT-1080 cells [1]
  effect on staurosporine-induced cell death: suppressed staurosporine-induced cell death
GPX4
  effect on FIN56-induced decrease of GPX4 protein abundance: not inhibited
HT-1080 cells [3]
  effect on lipid ROS generation after FIN56 treatment: inhibited lipid ROS generation after FIN56 treatment
